From patent publication US20040122089A1, “Novel eicosanoid analgesics” (priority 2001, published 2004)

Assays:
CB1 receptors [1] = biological target: T1, CB1 receptors (Rattus norvegicus, UniProt P20272); assay: Agonist-stimulated [35S]GTPγS binding, rat hippocampal membranes; conditions: for Emax: read-out: GTPγS binding (Emax)
mice [2] = assay: SR141716A pre-treatment before compounds in spontaneous activity and tail-flick tests in mice; format: in vivo, mouse; conditions: for Spontaneous Activity (Beam Interuptions), SR14176a + comp / Tail-Flick Latency (% MPE), SR14176a + comp: SR14176A 3 mg/kg i.v. 10 min before
Procedure: (§1) The analogs were administered to mice by tail-vein injection and evaluated for their ability to produce hypomotility, hypothermia, and antinociception. These pharmacological measures were determined in the same mouse at a time when maximal activity was present. […] A 10-sec maximum latency was used. Antinociception was expressed as % MPE as described below.
Data are means ±S.E. of n≧six animals.

mice [3] = assay: Mouse tetrad of behavioral tests, i.v. (Example 3); format: in vivo; conditions: i.v.; for R.I. ED50 / Rectal temp. ED50 / Spontan. activity ED50 / Tail Flick ED50: mean (range)
Procedure: as §1
Data Analysis—For production of hypomotility and hypothermia, the data were expressed as a percentage of control activity and change in temperature, respectively. Antinociception was calculated according to the following equation.
% MPE=−((test latency-control latency)/(10s-control latency))×100
At least six animals were treated with each dose-response relationships could be determined for each analog. ED50 values were determined from least-squares unweighted linear regression analysis of log dose-response plots.
The ED50 (milligrams per kilogram, i.v.) does for inhibition of sector crossings (spontaneous activity) in an open field, antinociception (delay in seconds in the tail-flick response), decrease of rectal temperature in degrees Celsius, and induction of time spent in immobility on a ring are shown. Data are means (and ranges) of N>six animals.

CB1 receptors [4] = biological target: T1, CB1 receptors; assay: CB1 receptor binding, [3H]CP55940, whole rat brain membranes (Example 3); conditions: read-out: CB1 affinity Ki
human VR1 receptor = human VR1 receptor (Homo sapiens, UniProt Q8NER1); assay: Cytosolic calcium concentration assay in HEK-hVR1 cells (Example 3); conditions: for Emax: read-out: hVR1 efficacy (maximal effect, in parentheses)
Chain of human VR1 receptor (Q8NER1 whole entry): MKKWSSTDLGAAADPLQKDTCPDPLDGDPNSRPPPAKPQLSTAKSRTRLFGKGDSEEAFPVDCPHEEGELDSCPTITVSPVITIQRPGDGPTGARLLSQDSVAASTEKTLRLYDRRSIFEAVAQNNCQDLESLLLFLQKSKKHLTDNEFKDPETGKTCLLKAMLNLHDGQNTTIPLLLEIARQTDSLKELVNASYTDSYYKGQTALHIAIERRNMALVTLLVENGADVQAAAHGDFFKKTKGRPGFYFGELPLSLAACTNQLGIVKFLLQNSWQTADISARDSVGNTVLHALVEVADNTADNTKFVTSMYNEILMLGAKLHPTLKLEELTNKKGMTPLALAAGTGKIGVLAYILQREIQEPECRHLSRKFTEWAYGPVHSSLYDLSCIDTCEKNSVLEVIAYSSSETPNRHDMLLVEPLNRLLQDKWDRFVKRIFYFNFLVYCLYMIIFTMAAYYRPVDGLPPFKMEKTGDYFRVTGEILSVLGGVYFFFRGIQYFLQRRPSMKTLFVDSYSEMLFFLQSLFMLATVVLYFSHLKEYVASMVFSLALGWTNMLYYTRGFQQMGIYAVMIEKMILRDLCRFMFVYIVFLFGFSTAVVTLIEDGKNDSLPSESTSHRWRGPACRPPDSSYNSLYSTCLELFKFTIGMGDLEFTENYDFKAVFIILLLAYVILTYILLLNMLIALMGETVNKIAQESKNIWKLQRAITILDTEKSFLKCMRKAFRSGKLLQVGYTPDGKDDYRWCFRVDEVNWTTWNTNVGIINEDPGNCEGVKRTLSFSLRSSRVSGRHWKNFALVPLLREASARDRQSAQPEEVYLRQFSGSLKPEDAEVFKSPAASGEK

FAAH = biological target: T2, FAAH (Rattus norvegicus, UniProt P97612); assay: Fatty acid amide hydrolase assay, rat brain membranes; format: biochemical
T2 construct: membranes prepared from frozen brains of CD rats (Charles River, France); from tissue; host or cells: brain membranes of CD rats
T2 sequence (P97612 1-579): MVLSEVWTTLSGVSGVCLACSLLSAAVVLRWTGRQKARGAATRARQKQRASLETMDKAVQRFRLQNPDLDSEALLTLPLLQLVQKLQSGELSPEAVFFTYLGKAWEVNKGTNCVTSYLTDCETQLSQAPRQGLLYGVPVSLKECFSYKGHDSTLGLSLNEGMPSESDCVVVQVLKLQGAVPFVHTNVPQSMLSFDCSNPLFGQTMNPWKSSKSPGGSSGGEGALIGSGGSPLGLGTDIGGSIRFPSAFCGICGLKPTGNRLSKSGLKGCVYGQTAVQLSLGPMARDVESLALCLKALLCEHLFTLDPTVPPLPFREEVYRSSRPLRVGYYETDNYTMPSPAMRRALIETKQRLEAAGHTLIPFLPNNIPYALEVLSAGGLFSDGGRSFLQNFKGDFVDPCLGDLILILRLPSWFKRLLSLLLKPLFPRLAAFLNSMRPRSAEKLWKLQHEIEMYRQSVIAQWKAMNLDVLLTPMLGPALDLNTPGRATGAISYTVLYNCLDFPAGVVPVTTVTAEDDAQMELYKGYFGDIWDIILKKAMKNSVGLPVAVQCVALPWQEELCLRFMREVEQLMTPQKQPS
Procedure: Fatty acid amide hydrolase assay—The effect of compounds on the enzymatic hydrolysis of AEA was studied using membranes prepared from frozen brains of CD rats (Charles River, France), incubated with the test compounds and [^14C] AEA (9 μM) in 50 mM Tris-HCl, pH 9, for 30 min at 37° C. [^14C] Ethanolamine produced from [^14C] AEA hydrolysis was measured by scintillation counting of the aqueous phase after extraction of the incubation mixture with 2 volumes of CHCl3/CH3OH 2:1 (by vol.).
(§2) CP55940 from whole rat brain membranes.

AMT = format: cell-based, rat; conditions: [14C]AEA uptake, RBL-2H3 cells; read-out: AEA transport (IC50)
Procedure: AEA. Cells were incubated with [^14C] AEA for 5 min at 37° C., in the presence or absence of varying concentrations of the inhibitors. Residual [^14C] AEA in the incubation media after extraction with CHCl3/CH3OH 2:1 (by vol.), determined by scintillation counting of the lyophilized organic phase, was used as a measure of the AEA that was taken up by cells.
as §2

T1 sequence (P20272 whole entry): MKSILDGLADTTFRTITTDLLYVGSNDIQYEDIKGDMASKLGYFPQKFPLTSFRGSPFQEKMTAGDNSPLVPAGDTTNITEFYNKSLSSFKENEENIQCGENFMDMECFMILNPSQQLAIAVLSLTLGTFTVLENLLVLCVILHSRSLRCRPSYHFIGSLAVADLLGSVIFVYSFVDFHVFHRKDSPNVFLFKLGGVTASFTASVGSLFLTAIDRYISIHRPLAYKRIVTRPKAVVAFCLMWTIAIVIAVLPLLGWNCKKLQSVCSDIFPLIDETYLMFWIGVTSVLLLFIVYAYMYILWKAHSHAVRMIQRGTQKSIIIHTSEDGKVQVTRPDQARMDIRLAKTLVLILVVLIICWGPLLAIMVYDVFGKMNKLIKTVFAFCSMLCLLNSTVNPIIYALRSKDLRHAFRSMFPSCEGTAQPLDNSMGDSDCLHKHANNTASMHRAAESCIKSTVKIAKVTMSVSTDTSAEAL

Row | Compound | Emax (CB1 receptors [1]) | Average ED50 (mice [3]) | R.I. ED50 (mice [3]) | Rectal temp. ED50 (mice [3]) | Spontan. activity ED50 (mice [3]) | Tail Flick ED50 (mice [3]) | Ki (CB1 receptors [4]) | EC50 (human VR1 receptor) | Emax (human VR1 receptor) | IC50 (FAAH) | IC50 (AMT) | other results
1 | CCCCC/C=C\C/C=C\C/C=C\C/C=C\CCCC(=O)N(C)Cc1ccc(O)c(OC)c1 [Compound O-1988] | 0% | 5.98 milligrams per kilogram | 4.08 (2.99-5.56) milligrams per kilogram | 8.74 (5.61-13.60) milligrams per kilogram | 3.11 (1.54-6.29) milligrams per kilogram | 7.98 (5.17-12.34) milligrams per kilogram | 2.83 ± 0.175 µM | 0.025 ± 0.0039 µM | 69.1% | > 50 µM | 10 ± 2.1 µM | effect of SR141716A pre-treatment on the compound's effects in the tetrad tests (mice [2]; SR141716A 3 mg/kg i.v., 10 min pre-treatment): not affected; Spontaneous Activity (Beam Interuptions), vehicle + compound (mice [2]; dose 3 mg/kg i.v.): 766 ± 157 Beam Interuptions; Tail-Flick Latency (% MPE), vehicle + compound (mice [2]; dose 3 mg/kg i.v.): 54 ± 9 % MPE; Spontaneous Activity (Beam Interuptions), SR14176a + comp (mice [2]; dose 3 mg/kg i.v.): 689 ± 68 Beam Interuptions; Tail-Flick Latency (% MPE), SR14176a + comp (mice [2]; dose 3 mg/kg i.v.): 67 ± 15 % MPE; Spontaneous Activity (Beam Interuptions), vehicle + compound (mice [2]; dose 10 mg/kg i.v.): 179 ± 34 Beam Interuptions; Tail-Flick Latency (% MPE), vehicle + compound (mice [2]; dose 10 mg/kg i.v.): 100 % MPE; Spontaneous Activity (Beam Interuptions), SR14176a + comp (mice [2]; dose 10 mg/kg i.v.): 117 ± 17 Beam Interuptions; Tail-Flick Latency (% MPE), SR14176a + comp (mice [2]; dose 10 mg/kg i.v.): 100 % MPE
2 | CCCCC/C=C\C/C=C\C/C=C\C/C=C\CCCNC(=S)NCc1ccc(O)c(OC)c1 [Compound O-2095] | 0% | 0.05 milligrams per kilogram | 0.08 (0.05-0.12) milligrams per kilogram | 0.03 (0.02-0.07) milligrams per kilogram | 0.02 (0.02-0.03) milligrams per kilogram | 0.08 (0.06-0.10) milligrams per kilogram | 8.63 ± 0.13 µM | 0.0004 ± 0.0001 µM | 72.1% | > 50 µM | 7.5 ± 1.8 µM | 
3 | CCCCC/C=C\C/C=C\C/C=C\C/C=C\CCCNC(=S)NCc1ccc(O)c(Cl)c1 [Compound O-2109] | 0% | 0.15 milligrams per kilogram | 0.15 (0.10-0.23) milligrams per kilogram | 0.33 (0.02-5.06) milligrams per kilogram | 0.02 (0.02-0.03) milligrams per kilogram | 0.09 (0.06-0.12) milligrams per kilogram | 1.8 ± 0.204 µM | 0.004 ± 0.0011 µM |  | > 50 µM | 3.8 ± 0.7 µM | fold less potent than O-2095 at VR1 (human VR1 receptor): 10 fold
4 | CCCCC/C=C\C/C=C\C/C=C\C/C=C\CCCC(=O)NCc1ccc(OC(=O)CCCN2CCOCC2)c(OC)c1 [Compound O-2142] | 0% | 0.17 milligrams per kilogram | 0.17 (0.13-0.22) milligrams per kilogram | 0.11 (0.07-0.17) milligrams per kilogram | 0.20 (0.16-0.24) milligrams per kilogram | 0.19 (0.15-0.25) milligrams per kilogram | 0.483 ± 0.063 µM | 0.0006 ± 0.0002 µM | 86.6% | 9.1 ± 1.7 µM | 30 ± 4.3 µM | activity in the GTPγS binding assay (CB1 receptors [1]): inactive
